Data from the NIST ThermoML archive (doi:10.1021/je300175w).
“And” between values parts separate entries of the source, which are not always exact repeats. Equal entries are not always repeated. Numbers after ± are expanded uncertainties.

Experiment: mn = molality of the nth substance listed, in mol/kg
Conditions: 101 kPa, Liquid, Sing-around technique in a fixed-path interferometer

CC(C)(C)CO [2,2-dimethyl-1-propanol] + O
speed of sound (278.15 K, m1 = 0.0485): 1430.2 ± 0.72 m/s
speed of sound (278.15 K, m1 = 0.09995): 1434.4 ± 0.72 m/s
speed of sound (278.15 K, m1 = 0.1472): 1438.2 ± 0.73 m/s and 1438.1 ± 0.73 m/s
speed of sound (278.15 K, m1 = 0.1999): 1442.3 ± 0.73 m/s
speed of sound (283.15 K, m1 = 0.0485): 1452.5 ± 0.73 m/s
speed of sound (283.15 K, m1 = 0.09995): 1457.9 ± 0.73 m/s and 1458 ± 0.73 m/s
speed of sound (283.15 K, m1 = 0.1472): 1463 ± 0.73 m/s and 1462.9 ± 0.73 m/s
speed of sound (283.15 K, m1 = 0.1999): 1468.5 ± 0.74 m/s and 1468.4 ± 0.74 m/s
speed of sound (288.15 K, m1 = 0.0485): 1470.7 ± 0.74 m/s
speed of sound (288.15 K, m1 = 0.09995): 1475.7 ± 0.74 m/s
speed of sound (288.15 K, m1 = 0.1472): 1480.2 ± 0.74 m/s
speed of sound (288.15 K, m1 = 0.1999): 1485.2 ± 0.74 m/s
speed of sound (293.15 K, m1 = 0.0485): 1486.8 ± 0.74 m/s
speed of sound (293.15 K, m1 = 0.09995): 1491.3 ± 0.74 m/s
speed of sound (293.15 K, m1 = 0.1472): 1495.5 ± 0.74 m/s
speed of sound (293.15 K, m1 = 0.1999): 1500 ± 0.75 m/s
speed of sound (298.15 K, m1 = 0.0485): 1500.7 ± 0.75 m/s
speed of sound (298.15 K, m1 = 0.09995): 1504.9 ± 0.75 m/s
speed of sound (298.15 K, m1 = 0.1472): 1508.7 ± 0.75 m/s
speed of sound (298.15 K, m1 = 0.1999): 1512.8 ± 0.75 m/s
speed of sound (308.15 K, m1 = 0.0485): 1523.3 ± 0.75 m/s and 1523.1 ± 0.75 m/s
speed of sound (308.15 K, m1 = 0.09995): 1526.6 ± 0.75 m/s and 1526.4 ± 0.75 m/s
speed of sound (308.15 K, m1 = 0.1472): 1529.7 ± 0.76 m/s and 1529.5 ± 0.76 m/s
speed of sound (308.15 K, m1 = 0.1999): 1532.9 ± 0.76 m/s
speed of sound (318.15 K, m1 = 0.0485): 1539.1 ± 0.76 m/s and 1539.2 ± 0.76 m/s
speed of sound (318.15 K, m1 = 0.09995): 1541.8 ± 0.76 m/s
speed of sound (318.15 K, m1 = 0.1472): 1544.3 ± 0.76 m/s and 1544.2 ± 0.76 m/s
speed of sound (318.15 K, m1 = 0.1999): 1546.9 ± 0.76 m/s

CCC(CO)(CO)CO [2-ethyl-2-(hydroxymethyl)-1,3-propanediol] + O
speed of sound (278.15 K, m1 = 0.09974): 1436 ± 0.72 m/s and 1436.1 ± 0.72 m/s
speed of sound (278.15 K, m1 = 0.1998): 1445.7 ± 0.73 m/s
speed of sound (278.15 K, m1 = 0.3): 1455.1 ± 0.74 m/s
speed of sound (278.15 K, m1 = 0.3961): 1464 ± 0.74 m/s
speed of sound (278.15 K, m1 = 0.5048): 1473.8 ± 0.75 m/s
speed of sound (283.15 K, m1 = 0.09974): 1456.4 ± 0.73 m/s and 1456.5 ± 0.73 m/s
speed of sound (283.15 K, m1 = 0.1998): 1465.3 ± 0.74 m/s and 1465.4 ± 0.74 m/s
speed of sound (283.15 K, m1 = 0.3): 1474.1 ± 0.74 m/s
speed of sound (283.15 K, m1 = 0.3961): 1482.3 ± 0.75 m/s and 1482.4 ± 0.75 m/s
speed of sound (283.15 K, m1 = 0.5048): 1491.4 ± 0.75 m/s
speed of sound (288.15 K, m1 = 0.09974): 1474.5 ± 0.74 m/s
speed of sound (288.15 K, m1 = 0.1998): 1482.8 ± 0.74 m/s
speed of sound (288.15 K, m1 = 0.3): 1490.9 ± 0.75 m/s
speed of sound (288.15 K, m1 = 0.3961): 1498.5 ± 0.75 m/s
speed of sound (288.15 K, m1 = 0.5048): 1507 ± 0.76 m/s
speed of sound (293.15 K, m1 = 0.09974): 1490.3 ± 0.74 m/s
speed of sound (293.15 K, m1 = 0.1998): 1498 ± 0.75 m/s
speed of sound (293.15 K, m1 = 0.3): 1505.6 ± 0.75 m/s
speed of sound (293.15 K, m1 = 0.3961): 1512.7 ± 0.76 m/s
speed of sound (293.15 K, m1 = 0.5048): 1520.5 ± 0.76 m/s
speed of sound (298.15 K, m1 = 0.09974): 1504.1 ± 0.75 m/s
speed of sound (298.15 K, m1 = 0.1998): 1511.3 ± 0.75 m/s
speed of sound (298.15 K, m1 = 0.3): 1518.3 ± 0.76 m/s
speed of sound (298.15 K, m1 = 0.3961): 1524.9 ± 0.76 m/s
speed of sound (298.15 K, m1 = 0.5048): 1532.2 ± 0.77 m/s
speed of sound (308.15 K, m1 = 0.09974): 1526.5 ± 0.76 m/s and 1526.2 ± 0.76 m/s
speed of sound (308.15 K, m1 = 0.1998): 1532.7 ± 0.76 m/s and 1532.4 ± 0.76 m/s
speed of sound (308.15 K, m1 = 0.3): 1538.9 ± 0.76 m/s and 1538.5 ± 0.76 m/s
speed of sound (308.15 K, m1 = 0.3961): 1544.6 ± 0.77 m/s and 1544.3 ± 0.77 m/s
speed of sound (308.15 K, m1 = 0.5048): 1550.9 ± 0.77 m/s and 1550.5 ± 0.77 m/s
speed of sound (318.15 K, m1 = 0.09974): 1542.2 ± 0.76 m/s and 1542 ± 0.76 m/s
speed of sound (318.15 K, m1 = 0.1998): 1547.6 ± 0.76 m/s and 1547.4 ± 0.76 m/s
speed of sound (318.15 K, m1 = 0.3): 1552.8 ± 0.77 m/s and 1552.7 ± 0.77 m/s
speed of sound (318.15 K, m1 = 0.3961): 1557.4 ± 0.77 m/s and 1557.6 ± 0.77 m/s
speed of sound (318.15 K, m1 = 0.5048): 1562.8 ± 0.78 m/s and 1563 ± 0.78 m/s

CC(CO)CO [2-methyl-1,3-propanediol] + O
speed of sound (278.15 K, m1 = 0.1097): 1434 ± 0.72 m/s
speed of sound (278.15 K, m1 = 0.1997): 1440.3 ± 0.73 m/s and 1440.4 ± 0.73 m/s
speed of sound (278.15 K, m1 = 0.3091): 1448 ± 0.73 m/s
speed of sound (278.15 K, m1 = 0.3983): 1454.1 ± 0.73 m/s
speed of sound (283.15 K, m1 = 0.1097): 1454.5 ± 0.73 m/s and 1454.4 ± 0.73 m/s
speed of sound (283.15 K, m1 = 0.1997): 1460.3 ± 0.73 m/s
speed of sound (283.15 K, m1 = 0.3091): 1467.3 ± 0.74 m/s
speed of sound (283.15 K, m1 = 0.3983): 1472.9 ± 0.74 m/s and 1473 ± 0.74 m/s
speed of sound (288.15 K, m1 = 0.1097): 1472.6 ± 0.74 m/s
speed of sound (288.15 K, m1 = 0.1997): 1477.9 ± 0.74 m/s and 1478 ± 0.74 m/s
speed of sound (288.15 K, m1 = 0.3091): 1484.4 ± 0.74 m/s
speed of sound (288.15 K, m1 = 0.3983): 1489.6 ± 0.75 m/s
speed of sound (293.15 K, m1 = 0.1097): 1488.5 ± 0.74 m/s
speed of sound (293.15 K, m1 = 0.1997): 1493.4 ± 0.74 m/s
speed of sound (293.15 K, m1 = 0.3091): 1499.4 ± 0.75 m/s
speed of sound (293.15 K, m1 = 0.3983): 1504.1 ± 0.75 m/s and 1504.2 ± 0.75 m/s
speed of sound (298.15 K, m1 = 0.1097): 1502.3 ± 0.75 m/s and 1502.4 ± 0.75 m/s
speed of sound (298.15 K, m1 = 0.1997): 1506.9 ± 0.75 m/s
speed of sound (298.15 K, m1 = 0.3091): 1512.4 ± 0.75 m/s
speed of sound (298.15 K, m1 = 0.3983): 1516.8 ± 0.76 m/s
speed of sound (308.15 K, m1 = 0.1097): 1524.7 ± 0.75 m/s
speed of sound (308.15 K, m1 = 0.1997): 1528.6 ± 0.76 m/s
speed of sound (308.15 K, m1 = 0.3091): 1533.6 ± 0.76 m/s and 1533.3 ± 0.76 m/s
speed of sound (308.15 K, m1 = 0.3983): 1537.3 ± 0.76 m/s and 1537 ± 0.76 m/s
speed of sound (318.15 K, m1 = 0.1097): 1540.4 ± 0.76 m/s and 1540.6 ± 0.76 m/s
speed of sound (318.15 K, m1 = 0.1997): 1543.8 ± 0.76 m/s and 1544 ± 0.76 m/s
speed of sound (318.15 K, m1 = 0.3091): 1547.8 ± 0.77 m/s and 1548 ± 0.77 m/s
speed of sound (318.15 K, m1 = 0.3983): 1551.1 ± 0.77 m/s and 1551.2 ± 0.77 m/s

CCC(CO)(CO)COCC(CC)(CO)CO [3,3,7,7-tetrakis(hydroxymethyl)-5-oxanonane] + O
speed of sound (278.15 K, m1 = 0.01972): 1429.8 ± 0.72 m/s
speed of sound (278.15 K, m1 = 0.04105): 1433.6 ± 0.72 m/s and 1433.7 ± 0.72 m/s
speed of sound (278.15 K, m1 = 0.06045): 1437.1 ± 0.73 m/s
speed of sound (278.15 K, m1 = 0.079): 1440.3 ± 0.73 m/s
speed of sound (283.15 K, m1 = 0.01972): 1450.6 ± 0.73 m/s
speed of sound (283.15 K, m1 = 0.04105): 1454.1 ± 0.73 m/s
speed of sound (283.15 K, m1 = 0.06045): 1457.3 ± 0.73 m/s
speed of sound (283.15 K, m1 = 0.079): 1460.3 ± 0.73 m/s
speed of sound (288.15 K, m1 = 0.01972): 1469 ± 0.73 m/s
speed of sound (288.15 K, m1 = 0.04105): 1472.3 ± 0.74 m/s
speed of sound (288.15 K, m1 = 0.06045): 1475.2 ± 0.74 m/s
speed of sound (288.15 K, m1 = 0.079): 1478 ± 0.74 m/s
speed of sound (293.15 K, m1 = 0.01972): 1485.2 ± 0.74 m/s
speed of sound (293.15 K, m1 = 0.04105): 1488.2 ± 0.74 m/s
speed of sound (293.15 K, m1 = 0.06045): 1490.9 ± 0.74 m/s
speed of sound (293.15 K, m1 = 0.079): 1493.4 ± 0.74 m/s
speed of sound (298.15 K, m1 = 0.01972): 1499.3 ± 0.74 m/s
speed of sound (298.15 K, m1 = 0.04105): 1502.1 ± 0.75 m/s
speed of sound (298.15 K, m1 = 0.06045): 1504.6 ± 0.75 m/s
speed of sound (298.15 K, m1 = 0.079): 1506.9 ± 0.75 m/s
speed of sound (308.15 K, m1 = 0.01972): 1522.2 ± 0.75 m/s and 1522 ± 0.75 m/s
speed of sound (308.15 K, m1 = 0.04105): 1524.5 ± 0.75 m/s and 1524.3 ± 0.75 m/s
speed of sound (308.15 K, m1 = 0.06045): 1526.6 ± 0.76 m/s and 1526.4 ± 0.76 m/s
speed of sound (308.15 K, m1 = 0.079): 1528.6 ± 0.76 m/s and 1528.4 ± 0.76 m/s
speed of sound (318.15 K, m1 = 0.01972): 1538.2 ± 0.76 m/s and 1538.3 ± 0.76 m/s
speed of sound (318.15 K, m1 = 0.04105): 1540.2 ± 0.76 m/s and 1540.3 ± 0.76 m/s
speed of sound (318.15 K, m1 = 0.06045): 1542 ± 0.76 m/s and 1542.1 ± 0.76 m/s
speed of sound (318.15 K, m1 = 0.079): 1543.7 ± 0.76 m/s and 1543.8 ± 0.76 m/s
